Marks after values point to notes of the source that are not given here.

Format in all cases: in vivo
Series [1] deals with 4T1 mouse mammary breast cancer cells. As to the kind of experiment: Example O: syngeneic 4T1 breast cancer growth in Balb/C mice. Particulars: 4T1 in female Balb/C mice; for Final Tumor Volume: 120 μmol/kg/day oral gavage, day 2 to day 30; for Δ BW % / Final Body Weight / Initial Body Weight: 120 μmol/kg/day oral; for Δ BW %: final vs initial body weight; for Final Body Weight: in g (unit assumed); for Initial Body Weight: initial (baseline). The protocol: Cancer models in mice generally either involve syngeneic murine tumors in immunocompetent mice or xenografts of human tumors in immunocompromised mice. […] Mice received test compounds by oral gavage in 1% hydroxypropylmethylcellulose from day 2 until day 30. Tumor growth was assessed by caliper measurements twice per week and tumor weight after necropsy, and body weight was also monitored. Treatment groups were: • 1. […] HPMC) • 2. CI (120 μmol/kg/day) • 3. BA (120 μmol/kg/day) • 4. CP (120 μmol/kg/day) • 5. CQ (120 μmol/kg/day) • 6. AA (120 μmol/kg/day) • 7. AC (120 μmol/kg/day)

The subject of series [2] is HCT-116 colon adenocarcinoma cells. As to the kind of experiment: Example Q: HCT-116 liver metastases of human colorectal cancer in nude mice. Particulars: 240 μmol/kg/day oral, 28 days. An excerpt: A major cause of morbidity and mortality in patients with colorectal cancer is metastasis of the tumor into the liver; colorectal cancer can often be successfully resected from the primary site, but metastases to the liver are much less accessible to surgical treatment. A mouse model of colorectal cancer metastasis to the liver has been established, using HCT-116 colon adenocarcinoma cells injected into the spleen of athymic (nude) mice. The HCT-116 cancer cells spontaneously spread from the spleen into the liver via the circulation, and they form tumors in the liver (Ishizu, K., Sunose, N., Yamazaki, K., Tsuruo, T., Sadahiro, S., Makuuchi, H., and Yamori, T. Development and Characterization of a Model of Liver Metastasis Using Human Colon Cancer HCT-116. Biol. Pharm. Bull. 2007, 30(9):1779-1783).
Mice (female Hsd:athymic nude-Foxn1^nu) were anesthetized with xylazine/ketamine intraperitoneal injection, followed by incision approximately 10 mm on the left subcostal region (area disinfected with ethanol) to expose the peritoneum. The peritoneum was opened for about 8 mm near the spleen, and 2.5×10^6 cells in 50 μL PBS were injected into the spleen using a 30G needle. The spleen was repositioned, and the surgical area was closed using sutures and clips.
The day after receiving cells, mice were randomized into groups of five based upon body weight to provide groups with approximately equivalent mean body weight. Mice received a single, daily oral dose of test article or vehicle (1% hydroxypropylmethylcellulose) beginning 48 hours following cell injection into the spleen.
At study termination 28 days after HCT-116 cell injection, body weights were recorded, and spleens and livers were removed, weighed and fixed in 10% formalin. Livers were sectioned and stained; the relative areas of normal and tumor tissue were quantified in histology sections with quantitative planimetry software.

A further series deals with PC-3 cells. As to the kind of experiment: Example P: PC-3 human hormone-independent prostate cancer xenografts in nude mice. The method, then: Standard models for prostate cancer use subcutaneous xenografts of human prostate cancer cell line. Local measurable tumors are produced at the site of injection of the cells, and they metastasize to critical tissues such as the bones, lungs and liver. Mortality in this model is due to metastases impairing tissue function. Compounds of the invention were assessed for inhibition of tumor growth and reduction or delay of mortality in the PC-3 prostate cancer model, which mimics an advanced, androgen-independent stage of prostate cancer.
10 female nude mice (female Hsd:athymic nude-Foxn1^nu) received PC-3 cells (5×10^6 per mouse in 0.1 mL PBS) by subcutaneous injection into the right hind flank. […] Mice received AC or vehicle (saline) via intraperitoneal (i.p.) injection once daily until day 79. • 1. […] Compound AC: 120 μmol/kg/day.
Tumors were measured with calipers twice per week, and body weights and mortality were also monitored.

Series [3] deals with TPA induced chronic skin inflammation. As to the kind of experiment: Example E: TPA induced chronic skin inflammation mouse model, ear thickness. From the text:
Objective: To evaluate the anti-inflammatory properties of compounds of the invention in a 12-O-tetradecanoylphorbol-13-acetate (TPA) induced chronic skin inflammation mouse model.
Topically applied phorbol esters such as TPA induce skin inflammation involving edema, macrophage and T cell infiltration and epidermal hyperplasia (Alford et al., 1992), and this system has been used as an animal model for dermatitis, mimicking aspects of human inflammatory skin disorders. TPA is also known as a tumor promoter, so that agents which inhibit hyperproliferative or angiogenic actions of TPA may inhibit tumor promotion.
Drug formulations: Compound AC was dissolved in isopropyl myristate:propylene glycol (1:1)+0.9% DMSO at the indicated concentrations. TPA was dissolved in acetone:water (99:1). Dexamethasone (0.06%) was dissolved in normal saline.
Mice: HSD-ICR(CD-1R) female mice at 8-10 weeks of age were used in this experiment.
Experimental Design: Mice were placed into six groups of 10 mice each. 20 μL of 0.01% TPA was administered to each ear on days 0, 2, 4, 7, 9, 11, 13, 15, 18, 20, and 22. 20 μL of AC at various concentrations or 20 μL of dexamethasone solution was applied to the ears daily beginning on day 7, after inflammatory changes in ear thickness were established. Ear thickness was measured with calipers every three days.

Where [4] appears, read: HCT-116 liver metastases, nude mice.
[5] abbreviates: AC 120 μmol/kg/day i.p. once daily, group of 5.

As for `CCCCCCOc1ccc(CNc2ccnc3ccccc23)cc1` [AA, N-[4-(Hexyloxy)benzyl]quinolin-4-amine], in series [1], the “Final Tumor Volume” value is given as 563 ± 175 mm^3, the “Δ BW %” value is recorded as −5.1%, the “Final Body Weight” value was determined as 20.3 ± 1.3 and the “Initial Body Weight” value is recorded as 21.4 ± 1.0 g. Further, in series [2] (setting [4]), the “Final Body Weight Grams” value was determined as 28.2 ± 1.5 NS Grams, the “Liver Weight % of Body Weight” value worked out at 5.3 ± 0.2% and the “Tumor Area % of Vehicle Group” value is on record as 1.5% *. In addition, in series [2] (HCT-116 liver metastases, nude mice, histology planimetry), the “Tumor Area % of Total Liver” value is 0.2 ± 0.26%.

For `CCCCCCOc1cccc(CNc2ccnc3ccccc23)c1` [Compound AC, N-[3-(Hexyloxy)benzyl]quinolin-4-amine], in series [1], the “Final Tumor Volume” value was 723 ± 185 mm^3, the “Δ BW %” value is given as −8.4%, the “Final Body Weight” value stood at 19.7 ± 1.1 and the “Initial Body Weight” value was 21.5 ± 1.0 g. Further, the “excess of the Vehicle group's liver weight/body weight ratio over the treated group” value in series [2] was 12%. The “area of liver invaded by metastatic cancer cells, in words” value in series [2] (histology planimetry) is recorded as “markedly reduced the area of liver invaded by metastatic cancer cells”. For the same compound, in the series on PC-3 cells (AC 120 μmol/kg/day i.p.), the “mean body weight at end of study” value worked out at 28.9 ± 1.3 g, the “mice regressed more than 50% from the initial tumor size” value is “one” and the “mice with no detectable tumors at end of study (complete regressions)” value is recorded as “two”. For the same compound, in the series on PC-3 cells (setting [5]), the “day of death of the one mouse that died” value is 65 days and the “number of mice surviving until the study was terminated on day 79” value was 4. In addition, the “tumor size, average % of initial size” value in the series on PC-3 cells (day 77, AC 120 μmol/kg/day i.p.) was determined as 949%. Besides, the “initial group body weight” value with PC-3 cells (pretreatment) was 26.8 ± 0.5 g. Besides, the “Ear thickness (mm)” value in series [3] (day 22, 0.0125 mg/ear daily topical from day 7, TPA-treated mice) worked out at 0.362 ± 0.0394 mm. In series [3] (day 22, 0.025 mg/ear daily topical from day 7, TPA-treated mice), the “Ear thickness (mm)” value was 0.390 ± 0.0319 mm. Moreover, in series [3] (day 22, 0.05 mg/ear daily topical from day 7, TPA-treated mice), the “Ear thickness (mm)” value is 0.391 ± 0.0334 mm. The “Ear thickness (mm)” value in series [3] (day 22, 0.075 mg/ear daily topical from day 7, TPA-treated mice) was 0.395 ± 0.0438 mm. In addition, the “Histology of TPA-treated ears, in words” value in series [3] (topical AC) is “both TPA-induced edema and epidermal hyperplasia were reduced by AC, as was angiogenesis”.

These data come from patent US20250034139A1, “AMINE COMPOUNDS HAVING ANTI-INFLAMMATORY, ANTIFUNGAL, ANTIPARASITIC, AND ANTICANCER ACTIVITY” (PHARMA CINQ, LLC, priority 2013, published 2025).
